Measurements taken from patent US12570655B2, “Cysteine covalent modifiers of AKT1 and uses thereof” (Terremoto Biosciences, Inc., priority 2023, dated 2026).
Where two headings read alike, the source gives them in different places.

Assays:
Assay type in all cases: cell-based
[1] = molecular target: T1, AKT1 E17K (Homo sapiens, UniProt P31749, E17K); experiment: Live cell AKT1 E17K target engagement by NanoBRET competitive probe displacement; conditions: HEK293 cells transfected with kinase-NanoLuciferase fusion, 2 h at 37° C.
T1 construct: expressed in transfected cells; host or cells: HEK293
How it was run: (§1)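 NanoLuc-kinase fusions, HEK293, transfected overnight; compound serial dilution + ATP-competitive fluorescent tracer at ~EC50; 2 h, 37 °C. Read 460/600 nm with extracellular NanoLuc inhibitor; BRET = E600/E460; IC50 by Hill fit.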

[2] = molecular target: T2, AKT2 (Homo sapiens, UniProt P31751); experiment: Live cell AKT2 target engagement by NanoBRET competitive probe displacement; conditions: HEK293 cells transfected with kinase-NanoLuciferase fusion, 2 h at 37° C.
T2 construct: expressed in transfected cells; host or cells: HEK293
How it was run: as §1

[3] = molecular target: T3, AKT1 WT (Homo sapiens, UniProt P31749); experiment: Live cell AKT1 WT target engagement by NanoBRET competitive probe displacement; conditions: HEK293 cells transfected with kinase-NanoLuciferase fusion, 2 h at 37° C.
T3 construct: expressed in transfected cells; host or cells: HEK293
How it was run: as §1

[4] = test system: LAPC4 prostate cancer cells; experiment: Antiproliferative effects in LAPC4 cells (CellTiter Glo); conditions: LAPC4 cells (AKT1 E17K allele), read-out: LAPC4 proliferation IC50
How it was run: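 Luminescent ATP read-out (CellTiter Glo) after 72 h compound exposure; 1,000 cells/well in IMDM + 12% FBS + 1% P/S. IC50 by Hill equation fit of luminescence vs. log(inhibitor).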

T2 sequence (P31751 whole entry, the tested form may be a part): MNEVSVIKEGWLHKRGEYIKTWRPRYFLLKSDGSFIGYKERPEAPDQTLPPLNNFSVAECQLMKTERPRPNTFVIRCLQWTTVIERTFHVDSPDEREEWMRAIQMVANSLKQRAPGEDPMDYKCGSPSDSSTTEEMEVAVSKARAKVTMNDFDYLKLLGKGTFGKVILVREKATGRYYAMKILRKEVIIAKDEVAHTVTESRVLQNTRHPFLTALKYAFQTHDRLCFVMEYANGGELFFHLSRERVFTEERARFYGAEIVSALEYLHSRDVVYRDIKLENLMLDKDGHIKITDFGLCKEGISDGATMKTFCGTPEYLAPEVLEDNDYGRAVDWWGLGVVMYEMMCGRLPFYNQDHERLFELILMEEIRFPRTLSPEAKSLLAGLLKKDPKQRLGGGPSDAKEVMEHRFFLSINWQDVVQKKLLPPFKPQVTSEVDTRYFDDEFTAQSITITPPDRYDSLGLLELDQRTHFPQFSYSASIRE
T3 sequence (P31749 whole entry, the tested form may be a part): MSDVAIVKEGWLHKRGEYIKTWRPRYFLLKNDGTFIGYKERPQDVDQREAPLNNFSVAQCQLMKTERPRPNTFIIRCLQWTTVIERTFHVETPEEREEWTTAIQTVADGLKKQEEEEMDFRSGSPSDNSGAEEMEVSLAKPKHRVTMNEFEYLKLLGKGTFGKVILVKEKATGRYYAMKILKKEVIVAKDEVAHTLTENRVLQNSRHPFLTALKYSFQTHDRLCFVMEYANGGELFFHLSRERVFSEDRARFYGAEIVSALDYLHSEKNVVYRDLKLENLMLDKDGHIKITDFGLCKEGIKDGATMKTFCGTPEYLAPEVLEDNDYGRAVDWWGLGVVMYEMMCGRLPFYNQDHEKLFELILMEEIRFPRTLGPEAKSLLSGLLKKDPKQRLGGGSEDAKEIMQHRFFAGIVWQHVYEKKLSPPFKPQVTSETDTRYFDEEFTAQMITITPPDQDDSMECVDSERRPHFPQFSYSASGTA
T1 sequence (P31749 whole entry E17K, the tested form may be a part): as the sequence (P31749 whole entry, the tested form may be a part) above, with E17K counted along it

Row | SMILES | IC50 [1] [nM] | IC50 [2] [nM] | IC50 [3] [nM] | IC50 ([4]; 72 h) [nM] | IC50 ([4]; Homo sapiens, LAPC4, 72 h) [nM]
1 | C=CC(=O)N1CCC(N[C@@H]2c3ccc(-n4c(-c5cccnc5N)nc5ccc(-n6cccn6)nc54)cc3CC2F)C(C)C1 (single isomer, unassigned) [Example 290, 1-[(3*,4*)-4-{[(1R,2*)-5-[2-(2-aminopyridin-3-yl)-5-(pyrazol-1-yl)imidazo[4,5-b]pyridin-3-yl]-2-fluoro-2,3-dihydro-1H-inden-1-yl]amino}-3-methylpiperidin-1-yl]prop-2-en-1-one] | 19.4 | 122 | 666 | 455 | 
2 | C=CC(=O)N1CCC(N[C@@H]2c3ccc(-n4c(-c5cccnc5N)nc5ccc(-n6cccn6)nc54)cc3CC2F)C(C)C1 (single isomer, unassigned) [Example 291, 1-[(3*,4*)-4-{[(1R,2*)-5-[2-(2-aminopyridin-3-yl)-5-(pyrazol-1-yl)imidazo[4,5-b]pyridin-3-yl]-2-fluoro-2,3-dihydro-1H-inden-1-yl]amino}-3-methylpiperidin-1-yl]prop-2-en-1-one] | 68.3 | 358 | 1580 | 1110 | 
3 | C=CC(=O)N1CCC(N[C@@H]2c3ccc(-n4c(-c5cccnc5N)nc5ccc(-n6ccc(C7CC7)n6)nc54)cc3CC2F)CC1 (single isomer, unassigned) [Example 297, 1-(4-(((1R,2*)-5-(2-(2-aminopyridin-3-yl)-5-(3-cyclopropyl-1H-pyrazol-1-yl)-3H-imidazo[4,5-b]pyridin-3-yl)-2-fluoro-2,3-dihydro-1H-inden-1-yl)amino)piperidin-1-yl)prop-2-en-1-one] | 23.8 | 108 | 588 |  | 509
4 | C=CC(=O)N1CCC(N[C@@H]2c3ccc(-n4c(-c5cccnc5N)nc5ccc(-n6ccc(C7CC7)n6)nc54)cc3CC2F)CC1 (single isomer, unassigned) [Example 298, 1-(4-(((1R,2*)-5-(2-(2-aminopyridin-3-yl)-5-(3-cyclopropyl-1H-pyrazol-1-yl)-3H-imidazo[4,5-b]pyridin-3-yl)-2-fluoro-2,3-dihydro-1H-inden-1-yl)amino)piperidin-1-yl)prop-2-en-1-one] | 14.2 | 57.3 | 294 | 314 | 
5 | C=CC(=O)N1CCC(N[C@@H]2c3ccc(-n4c(-c5ccccc5F)nc5ccc(-n6cccn6)nc54)cc3CC2F)CC1 (single isomer, unassigned) [Example 300, 1-(4-(((1R,2*)-2-fluoro-5-(2-(2-fluorophenyl)-5-(1H-pyrazol-1-yl)-3H-imidazo[4,5-b]pyridin-3-yl)-2,3-dihydro-1H-inden-1-yl)amino)piperidin-1-yl)prop-2-en-1-one] | 9.07 | 34.9 | 2330 | 389 | 
6 | C=CC(=O)N1CCC(N[C@@H]2c3ccc(-n4c(-c5cccnc5N)nc5ccc(-n6cccn6)nc54)cc3CC2F)CC1C(F)F (single isomer, unassigned) [Example 302, 1-((2*,4*)-4-(((1R,2*)-5-(2-(2-aminopyridin-3-yl)-5-(1H-pyrazol-1-yl)-3H-imidazo[4,5-b]pyridin-3-yl)-2-fluoro-2,3-dihydro-1H-inden-1-yl)amino)-2-(difluoromethyl)piperidin-1-yl)prop-2-en-1-one] | 16.9 | 33.3 | 82.1 | 129 | 
7 | C=CC(=O)N1CCC(N[C@@H]2c3ccc(-n4c(-c5cccnc5N)nc5ccc(-n6cccn6)nc54)cc3CC2F)CC1C(F)F (single isomer, unassigned) [Example 304, 1-((2*,4*)-4-(((1R,2*)-5-(2-(2-aminopyridin-3-yl)-5-(1H-pyrazol-1-yl)-3H-imidazo[4,5-b]pyridin-3-yl)-2-fluoro-2,3-dihydro-1H-inden-1-yl)amino)-2-(difluoromethyl)piperidin-1-yl)prop-2-en-1-one] | 11.6 | 36.2 | 264 | 641 | 
8 | C=CC(=O)N1CCC(N[C@H]2CCc3cc(-n4c(-c5cccnc5N)nc5ccc(-n6cccn6)nc54)ccc32)C(C)(F)C1 (single isomer, unassigned) [Example 307, 1-((3*,4*)-4-(((S)-5-(2-(2-aminopyridin-3-yl)-5-(1H-pyrazol-1-yl)-3H-imidazo[4,5-b]pyridin-3-yl)-2,3-dihydro-1H-inden-1-yl)amino)-3-fluoro-3-methylpiperidin-1-yl)prop-2-en-1-one] | 12.3 | 106 | 294 | 345 | 
9 | C=CC(=O)N1CCC(N[C@H]2CCc3cc(-n4c(-c5cccnc5N)nc5ccc(-n6cccn6)nc54)ccc32)C(C)(F)C1 (single isomer, unassigned) [Example 309, 1-((3*,4*)-4-(((S)-5-(2-(2-aminopyridin-3-yl)-5-(1H-pyrazol-1-yl)-3H-imidazo[4,5-b]pyridin-3-yl)-2,3-dihydro-1H-inden-1-yl)amino)-3-fluoro-3-methylpiperidin-1-yl)prop-2-en-1-one] | 8.12 | 22.4 | 146 | 110 | 
10 | C=CC(=O)N1CCC(N[C@@H]2c3ccc(-n4c(-c5cccnc5N)nc5ccc(-n6ccc(C#N)n6)nc54)cc3CC2F)CC1 (single isomer, unassigned) [Example 311, 1-(3-((1R,2*)-1-((1-acryloylpiperidin-4-yl)amino)-2-fluoro-2,3-dihydro-1H-inden-5-yl)-2-(2-aminopyridin-3-yl)-3H-imidazo[4,5-b]pyridin-5-yl)-1H-pyrazole-3-carbonitrile] | 34.9 | 246 | 1190 |  | 496
11 | C=CC(=O)N1CCC(N[C@@H]2c3ccc(-n4c(-c5cccnc5N)nc5ccc(-n6ccc(C#N)n6)nc54)cc3CC2F)CC1 (single isomer, unassigned) [Example 312, 1-(3-((1R,2*)-1-((1-acryloylpiperidin-4-yl)amino)-2-fluoro-2,3-dihydro-1H-inden-5-yl)-2-(2-aminopyridin-3-yl)-3H-imidazo[4,5-b]pyridin-5-yl)-1H-pyrazole-3-carbonitrile] | 11.6 | 102 | 652 | 440 | 
12 | C=CC(=O)N1CCC(N[C@@H]2c3ccc(-n4c(-c5ccccc5F)nc5ccc(-n6cccn6)nc54)cc3CC2F)C[C@H]1C (single isomer, unassigned) [Example 317, 1-((2R,4*)-4-(((1R,2*)-2-fluoro-5-(2-(2-fluorophenyl)-5-(1H-pyrazol-1-yl)-3H-imidazo[4,5-b]pyridin-3-yl)-2,3-dihydro-1H-inden-1-yl)amino)-2-methylpiperidin-1-yl)prop-2-en-1-one] | 20.3 | 68.4 | 2590 | 464 | 
13 | C=CC(=O)Nc1ccccc1C(=O)N[C@H]1CCc2cc(-n3c(-c4cccnc4N)nc4ccc(-n5cccn5)nc43)ccc21 [Example 1, (S)-2-acrylamido-N-(5-(2-(2-aminopyridin-3-yl)-5-(1H-pyrazol-1-yl)-3H-imidazo[4,5-b]pyridin-3-yl)-2,3-dihydro-1H-inden-1-yl)benzamide] | 12.2 | 35 | 11.7 |  | 25.4
14 | C=CC(=O)Nc1cccc(C(=O)N[C@H]2CCc3cc(-n4c(-c5cccnc5N)nc5ccc(-n6cccn6)nc54)ccc32)c1 [Example 2, (S)-3-acrylamido-N-(5-(2-(2-aminopyridin-3-yl)-5-(1H-pyrazol-1-yl)-3H-imidazo[4,5-b]pyridin-3-yl)-2,3-dihydro-1H-inden-1-yl)benzamide] | 22.7 | 117 | 18.7 |  | 189
15 | C=CC(=O)N1CCc2c(C(=O)N[C@H]3CCc4cc(-n5c(-c6cccnc6N)nc6ccc(-n7cccn7)nc65)ccc43)cccc21 [Example 3, N-[(1S)-5-[2-(2-aminopyridin-3-yl)-5-(pyrazol-1-yl)imidazo[4,5-b]pyridin-3-yl]-2,3-dihydro-1H-inden-1-yl]-1-(prop-2-enoyl)-2,3-dihydroindole-4-carboxamide] | 32.8 | 70 | 15.1 |  | 833
16 | C=CC(=O)N(C)c1ccccc1C(=O)N[C@H]1CCc2cc(-n3c(-c4cccnc4N)nc4ccc(-n5cccn5)nc43)ccc21 [Example 4, (S)-N-(5-(2-(2-aminopyridin-3-yl)-5-(1H-pyrazol-1-yl)-3H-imidazo[4,5-b]pyridin-3-yl)-2,3-dihydro-1H-inden-1-yl)-2-(N-methylacrylamido)benzamide] | 823 | 3750 | 212 |  | 4210
17 | C=C(F)C(=O)Nc1ccccc1C(=O)N[C@H]1CCc2cc(-n3c(-c4cccnc4N)nc4ccc(-n5cccn5)nc43)ccc21 [Example 5, (S)-N-(5-(2-(2-aminopyridin-3-yl)-5-(1H-pyrazol-1-yl)-3H-imidazo[4,5-b]pyridin-3-yl)-2,3-dihydro-1H-inden-1-yl)-2-(2-fluoroacrylamido)benzamide] | 46.2 | 271 | 19.4 |  | 310
18 | C=CC(=O)Nc1cccc(F)c1C(=O)N[C@H]1CCc2cc(-n3c(-c4cccnc4N)nc4ccc(-n5cccn5)nc43)ccc21 [Example 6, N-[(1S)-5-[2-(2-aminopyridin-3-yl)-5-(pyrazol-1-yl)imidazo[4,5-b]pyridin-3-yl]-2,3-dihydro-1H-inden-1-yl]-2-fluoro-6-(prop-2-enamido)benzamide] | 20.1 | 22 | 11.9 |  | 144
